From ChEMBL document CHEMBL1144090, “Antinociceptive activity of niga-ichigoside F1 from Rubus imperialis” (1999)
Activity calls are given as the source filed them. The calls are words filed in the database; no cut-off is given here.

What was measured:
Mus musculus [1] = assay: Antinociceptive activity in Swiss mouse assessed as reduction of acetic acid-induced abdominal constructions at 1 to 10 mg/kg, ip administered 30 mins before acetic acid challenge measured after 20 mins relative to control; format: functional, Abdomen; conditions: dose mg/kg 1-10; route intraperitoneal
Mus musculus [2] = assay: Antinociceptive activity in Swiss mouse assessed as reduction of formalin-induced inflammatory pain at 1 to 10 mg/kg, ip administered 60 mins before formalin challenge measured during 15 to 30 mins relative to control; format: functional; conditions: route intraperitoneal
Mus musculus [3] = assay: Antinociceptive activity in ip dosed Swiss mouse assessed as reduction of formalin-induced neurogenic pain administered 60 mins before formalin challenge measured during 0 to 5 mins; format: functional
Mus musculus [4] = assay: Antinociceptive activity in ip dosed Swiss mouse assessed as reduction of formalin-induced inflammatory pain administered 60 mins before formalin challenge measured during 15 to 30 mins; format: functional; conditions: read-out: ID50 (the source's name)
Mus musculus [5] = assay: Antinociceptive activity in ip dosed Swiss mouse assessed as reduction of acetic acid-induced abdominal constructions administered 30 mins before acetic acid challenge measured for 20 mins; format: functional; conditions: Abdomen, read-out: ID50 (the source's name)
Mus musculus [6] = assay: Antinociceptive activity in Swiss mouse assessed as reduction of formalin-induced neurogenic pain at 1 to 10 mg/kg, ip administered 60 mins before formalin challenge measured during 0 to 5 mins relative to control; format: functional; conditions: route intraperitoneal

Structure (SMILES)	inhibition (INH) (Mus musculus [1]) [%]	inhibition (INH) (Mus musculus [2]) [%]	Activity (Mus musculus [3])	ED50 (Mus musculus [4]) [µmol/kg]	ED50 (Mus musculus [5]) [µmol/kg]	ED50 (Mus musculus [3]; read-out: ID50 (the source's name)) [µmol/kg]	inhibition (INH) (Mus musculus [6]) [%]
CC(=O)Nc1ccc(O)cc1 [ACETAMINOPHEN]	88	85	inactive	120	125	–	–
CC(=O)Oc1ccccc1C(=O)O [ASPIRIN]	83	88	inactive	123	133	–	–
C[C@@H]1CC[C@]2(C(=O)O[C@@H]3O[C@H](CO)[C@@H](O)[C@H](O)[C@H]3O)CC[C@]3(C)C(=CC[C@@H]4[C@@]5(C)C[C@@H](O)[C@H](O)[C@@](C)(CO)[C@@H]5CC[C@]43C)[C@@H]2[C@]1(C)O [NIGAICHIGOSIDE F1]	67.6	94	–	4.1	4.6	3.9	70.4
